Here are results for 7 compounds from paper PMC12289066, “Identification of glutathione transferase (GST P1) inhibitors via a high-throughput screening assay and implications as alternative treatment options for breast cancers” (PLOS One, 2025).

Test [1] has as its target T1, GST P1-1 (Homo sapiens, UniProt P09211).
T1 construct: purchased Sigma-Aldrich
Briefly: Determination of IC50 for GST P1-1 enzyme (dose-response / reconfirmation assay). The test is classed as biochemical. Here is the method: (§1) Each drug compound was added to the respective well at a volume of 80 nL of 10 mM stock solution in DMSO, yielding a final compound concentration of 10 μM and a final DMSO concentration of 0.1%. Each plate’s first and last two columns were used as negative (no compound added – 80 nL per well of DMSO) and positive (80 nL of EA added with a final concentration of 50 μM) controls, respectively. The Gyger Certus Flex dispenser was set up using a freshly prepared 1 mM of GSH and 20 nM of GST P1-1, pH 7.4, in one syringe and 8 mM CDNB solution in pure ethanol in the other syringe. Into each well 80 μL of GST-GSH solution was dispensed and incubated at 25°C for 20 minutes before the reaction was initiated by the addition of 4 μL of CDNB solution. The plates were incubated for 2 h in the dark at 25°C and then the absorbance was of each well recorded on a BioTek Synergy NEO HTS multimode plate reader (Agilent®) at a wavelength of 340 nm.
The IC50 of the GST P1-1 enzyme was determined for the 80 drug compounds with the highest score in the GST P1-1 screening assay. The assay conditions were used for the screening assay and each drug compound was tested at 8 different concentrations (μM) starting at 30 µM final assay concentration with a half-log dilution and 2 replicates per concentration.

Test [2] relates to MCF-7 cells. As to the kind of experiment: MTT cytotoxicity assay, MCF-7. The test is classed as cell-based, human. Here is the method: (§2) L929, MCF-7, and MDA-MB-231 cell lines were cultured in DMEM GlutaMAX media containing 10% heat-inactivated FBS and 1% (v/v) penicillin-streptomycin at 37°C and CO2 (5%). Cytotoxicity was determined using a 3-(4,5-dimethyl 2-thiazolyl)-2,5-diphenyl-2H-tetrazolium bromide (MTT) assay. 100 μL aliquots and approximately 50’000 cells/well were added to each well of flat-bottomed 96-well plates and incubated for 24 h in a humidified chamber at 37°C under saturated air with a 5% CO2 atmosphere. Stock solutions of 10 mM drug compounds were prepared in DMSO and were sequentially diluted with the cell culture buffer to give a final DMSO concentration of 0.5%. The solutions were added to the 96-well plates in 100 μL aliquots and 100 μL of buffer was added as a control to give a final drug compound concentration range of 0 − 100 μM. The plates were incubated for a further 72 h under the same conditions as before. MTT (10 μL, 5 mg/mL in Dulbecco’s phosphate-buffered saline) was added to each well and the plates were incubated for a further 3 h under the same conditions as before. The culture medium was aspirated from each well and the purple formazan crystals, formed by the mitochondrial dehydrogenase activity of vital cells, were dissolved in 100 μL DMSO. The absorbance of the resulting solutions was measured at 570 and 630 nm using a SpectraMax M5e multimode microplate reader and SoftMax Pro software, version 6.2.2. As the absorbance is directly proportional to the number of surviving cells, the percentage of surviving cells was calculated from the absorbance of wells relative to the control. The reported IC50 values are based on the mean from four independent experiments, each comprising three replicates per concentration.
(Tetrazolium assays rely on reduction of a dye to a coloured formazan, in cell work by metabolically active cells.)

For test [3], the target named is T1, GST P1-1. Briefly: Determination of inhibitor binding mechanism (kinetic GST P1-1 activity assay). The test is classed as biochemical. Particulars: from Km and Vmax versus reaction without inhibitor. On the procedure: The GST P1-1 concentration used in the assays was 0.02 U mL^-1.
1 mM GSH final concentration was used. The GST P1-1 was pre-incubated with the GSH for 20 minutes at room temperature before the addition of 12.5 μL of 4 mM solution of CDNB. The reaction rate was recorded against time using UV/VIS spectrophotometer (SpectraMax M5e from Molecular devices) at […].
The drug compounds’ inhibition mechanism was investigated using the kinetic GST P1-1 activity assay. Concentrations of CDNB ranged from 0–40 mM with the drug solution at a constant concentration of 5 μM. Experiments were performed in duplicate.
The Michaelis-Menten constant, Km, and […] Vmax were calculated using GraphPad Prism 9 software. To identify the type of inhibition the Michaelis-Menten equation was applied (Eq. 1): […]
where v0 is the initial velocity of the reaction, Vmax is the maximum velocity achieved by the reaction at maximum concentrations of substrate, [S] is the concentration of substrate, and Km is the substrate concentration at which the reaction velocity is half of the Vmax (Michaelis-Menten constant). The Michaelis-Menten equation predicts a hyperbolic relationship between initial velocity and substrate concentration, describing the kinetic behavior of enzymes. Evaluating the differences in Km and Vmax compared with the reaction without an inhibitor allows the competition type of an inhibitor to be identified. Competitive inhibitors present an increase in the Km and with Vmax unaffected. Non-competitive inhibitors present a […] Vmax.

Test [4] has as its target T1, GST P1-1. As to the kind of experiment: High-throughput GST P1-1 inhibition assay (384-well screen, CDNB/GSH). The test is classed as biochemical. Particulars: compound 10 μM; score 0 = negative control (DMSO), 1 = positive control (EA 50 μM); average of duplicate. Here is the method:
as §1
The z’factor was calculated for each plate according to Zhang et al.. The Z-factor is a dimensionless, simple statistical characteristic for each HTS assay. This provides a valuable tool for the comparison and assessment of the quality of assays, and can be utilized in assay optimization and validation. For each plate, the concentration of product was normalized by assigning a score of 0 (0%) to the negative control (average of maximal concentration of product measured in the presence of enzyme without any inhibitor) and a score of 1 (100%) was assigned to the positive control (average minimal concentration of product measured in the presence of enzyme with the reference inhibitor, i.e., EA). The experiment was performed in duplicate and the score for each drug compound was calculated as an average ± standard deviation. […] An internal laboratory information management system (LIMS) was used for basic data processing, management, visualization, and statistical hit validation.

For test [5], the system named is MDA-MB-231 cells. Briefly: MTT cytotoxicity assay, MDA-MB-231. The test is classed as cell-based, human. Here is the method:
as §2

The test system of test [6] is L929 cells. Briefly: MTT cytotoxicity assay, L929. Conditions: for selectivity towards the breast cancer cell lines: MCF-7 and MDA-MB-231 versus non-tumorigenic L929, 72 h MTT; for IC50: MTT, 72 h incubation, read-out: IC50 (average ± standard deviation) L929. The test is classed as cell-based, mouse. On the procedure: as §2, with “Cytotoxicity” for “L929, MCF-7, and MDA-MB-231 cell lines were cultured in DMEM GlutaMAX media containing 10% heat-inactivated FBS and 1% (v/v) penicillin-streptomycin at 37°C and CO2 (5%). Cytotoxicity”, “Stock solutions of 10 mM drug compounds were prepared in DMSO and were sequentially diluted with the cell culture buffer to give a final DMSO concentration of 0.5%. The solutions were added to the 96-well plates in 100 μL aliquots and 100 μL of buffer was added as a control to give a final drug compound concentration range of 0 − 100 μM.” left out

Setting [7] is: Table 2, rounded values, read-out: IC50 GSTP1 enzymatic reaction.
Setting [8] is: reconfirmation assay, Table S2, read-out: IC50 GSTP1.
The mark [9] stands for this setting: Homo sapiens, MCF7, MTT, 72 h incubation, read-out: IC50 (average ± standard deviation) MCF-7.
Setting [10] is: Homo sapiens, MCF7, compound alone, read-out: Concentration IC50 isolated (MCF-7 cell line).
[11] abbreviates: Homo sapiens, MDA-MB-231, MTT, 72 h incubation, read-out: IC50 (average ± standard deviation) MDA-MB-231.
Setting [12] is: Homo sapiens, MDA-MB-231, compound alone, read-out: Concentration IC50 isolated (MDA-MB-231 cell line).
The mark [13] stands for this setting: MTT, 72 h incubation, read-out: IC50 (average ± standard deviation) MCF-7.
[14] abbreviates: MTT, 72 h incubation, read-out: IC50 (average ± standard deviation) MDA-MB-231.

Structures can show the parent of a compound that is named as a salt. Where two headings read alike, the source gives them in different places. A value given as a limit tells only on which side of the number the result lay.

T1 sequence (P09211 2-210 limits assumed): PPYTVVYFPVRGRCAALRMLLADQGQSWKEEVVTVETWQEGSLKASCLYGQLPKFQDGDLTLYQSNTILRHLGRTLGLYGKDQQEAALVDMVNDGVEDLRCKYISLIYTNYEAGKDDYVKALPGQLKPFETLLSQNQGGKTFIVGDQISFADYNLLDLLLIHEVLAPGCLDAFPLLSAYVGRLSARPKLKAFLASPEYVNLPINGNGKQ

Regarding `CCc1ccc(/C=C2/SC(=S)NC2=O)cc1` [10058-F4], the IC50 in test [1] (setting [7]) is 2.8 µM; in test [1] (setting [8]) it was 2.75 µM; in test [2] (setting [9]) it was 14 ± 2 µM; in test [2] (setting [10]), 14 µM; in test [5] (setting [11]) it was 15 ± 4 µM; in test [5] (setting [12]) it was 15 µM. The IC50 in test [6] (Mus musculus, L929) is > 100 µM. Also, the “Hill Slope (dose-response curve)” value in test [1] (reconfirmation assay) came to 1.37. Further, the Inhibition mechanism entry in test [3] is on record as “Non-competitive”. In addition, in test [4], the Score came out at 0.731. Moreover, in test [6], the “selectivity towards the breast cancer cell lines” value is recorded as “highly selective”.
With `C[C@H]1COC2=C1C(=O)C(=O)c1c2ccc2c1CCCC2(C)C` [Cryptotanshinone 97.0%, Cryptotanshinone], the IC50 was determined as 8.9 µM in test [1] (setting [7]); 0.29 ± 0.04 µM in test [2] (setting [9]); 0.29 µM in test [2] (setting [10]); 2.9 ± 0.3 µM in test [5] (setting [11]); 2.9 µM in test [5] (setting [12]); 4.4 ± 0.3 µM in test [6] (Mus musculus, L929). In test [1] (reconfirmation assay), the “Hill Slope (dose-response curve)” value was 0.85. Further, the Inhibition mechanism result in test [3] was “Non-competitive”. Moreover, in test [4], the Score came out at 1.037. Moreover, in test [6], the “selectivity towards the breast cancer cell lines” value is “reasonable degree of selectivity”.
As to `O=C1C(=Cc2cccnc2)C(=O)c2ccccc21` [PRT 4165], the IC50 is 1.3 µM in test [1] (setting [7]); 59 ± 7 µM in test [2] (setting [9]); 59 µM in test [2] (setting [10]); 27 ± 6 µM in test [5] (setting [11]); 27 µM in test [5] (setting [12]); > 100 µM in test [6] (Mus musculus, L929). Also, the “Hill Slope (dose-response curve)” value in test [1] (reconfirmation assay) is 1.2. In addition, the Inhibition mechanism entry in test [3] is listed as “Non-competitive”. For the same compound, the Score in test [4] is on record as 0.890. In addition, the “selectivity towards the breast cancer cell lines” value in test [6] is recorded as “reasonable degree of selectivity”.
In the case of `CC(C)N(CCC(=O)c1ccc2ccccc2c1)Cc1ccccc1` [ZM 39923 (hydrochloride)], the IC50 in test [1] (setting [7]) was 1.5 µM; in test [2] (setting [9]), 4.3 ± 0.1 µM; in test [2] (setting [10]), 4.3 µM; in test [5] (setting [11]), 2.6 ± 0.1 µM; in test [5] (setting [12]), 2.6 µM; in test [6] (Mus musculus, L929) it was 8.2 ± 0.6 µM. Further, the “Hill Slope (dose-response curve)” value in test [1] (reconfirmation assay) is listed as 1.56. Also, the Inhibition mechanism result in test [3] is reported as “Competitive”. In addition, the Score in test [4] came to 0.788. Besides, the “selectivity towards the breast cancer cell lines” value in test [6] was “reasonable degree of selectivity”.
As for `O=C(O)c1cc(N2N=C(C(F)(F)F)/C(=C/c3ccc(-c4ccccc4)o3)C2=O)ccc1Cl` [en460], the IC50 worked out at 1.1 µM in test [1] (setting [7]), 10 ± 1 µM in test [2] (setting [13]), 19 ± 1 µM in test [5] (setting [14]) and 18 ± 2 µM in test [6]. In test [1] (reconfirmation assay), the “Hill Slope (dose-response curve)” value turned out to be 1.4. Further, the Score in test [4] came to 0.837.
As for `O=C(O)c1c(Sc2ccccc2)c2cc(Cl)ccc2n1Cc1ccc(Cl)cc1` [nTZDpa], the IC50 is 0.95 µM in test [1] (setting [7]), 39 ± 2 µM in test [2] (setting [13]), 95 ± 4 µM in test [5] (setting [14]) and 36 ± 3 µM in test [6]. The “Hill Slope (dose-response curve)” value in test [1] (reconfirmation assay) worked out at 1.7. The Score in test [4] is 0.909.
For PSB 06126, the IC50 is 0.3 µM in test [1] (setting [7]); 0.29 µM in test [1] (setting [8]); 45 ± 3 µM in test [2] (setting [13]); > 100 µM in test [5] (setting [14]); 39 ± 4 µM in test [6]. In test [1] (reconfirmation assay), the “Hill Slope (dose-response curve)” value is reported as 3.4. Besides, in test [4], the Score is given as 0.962.
